Results: patent US20150150879A2, “Compositions for Treatment of Cystic Fibrosis and Other Chronic Diseases” (Vertex Pharmaceuticals Incorporated, priority 2010, published 2015)

Target: T1, ΔF508-CFTR (Homo sapiens, UniProt P13569, DEL508-508)
T1 construct: expressed in transfected cells
Assay: Membrane potential optical (FRET/VIPR) assay, identification of potentiator compounds, NIH3T3 cells stably expressing ΔF508-CFTR
Format: cell-based
Conditions: Table II.A-4, assay not given; for EC50: modulators of ATP binding cassette transporters
Text: I) Membrane Potential Optical Methods for Assaying ΔF508-CFTR Modulation Properties of Compounds
The optical membrane potential assay utilized voltage-sensitive FRET sensors described by Gonzalez and Tsien (See, Gonzalez, J. E. and R. Y. Tsien (1995) “Voltage sensing by fluorescence resonance energy transfer in single cells” Biophys J 69(4): 1272-80, and Gonzalez, J. E. and R. Y. Tsien (1997) “Improved indicators of cell membrane potential that use fluorescence resonance energy transfer” Chem Biol 4(4): 269-77) in combination with instrumentation for measuring fluorescence changes such as the Voltage/Ion Probe Reader (VIPR) (See, Gonzalez, J. E., K. Oades, et al. (1999) “Cell-based assays and instrumentation for screening ion-channel targets” Drug Discov Today 4(9): 431-439).
These voltage sensitive assays are based on the change in fluorescence resonant energy transfer (FRET) between the membrane-soluble, voltage-sensitive dye, DiSBAC2(3), and a fluorescent phospholipid, CC2-DMPE, which is attached to the outer leaflet of the plasma membrane and acts as a FRET donor. Changes in membrane potential (Vm) cause the negatively charged DiSBAC2(3) to redistribute across the plasma membrane and the amount of energy transfer from CC2-DMPE changes accordingly. The changes in fluorescence emission were monitored using VIPR™ II, which is an integrated liquid handler and fluorescent detector designed to conduct cell-based screens in 96- or 384-well microtiter plates.
Identification of Potentiator Compounds
To identify potentiators of ΔF508-CFTR, a double-addition HTS assay format was developed. During the first addition, a Cl^−-free medium with or without test compound was added to each well. After 22 sec, a second addition of Cl^−-free medium containing 2-10 μM forskolin was added to activate ΔF508-CFTR. The extracellular Cl^− concentration following both additions was 28 mM, which promoted Cl^− efflux in response to ΔF508-CFTR activation and the resulting membrane depolarization was optically monitored using the FRET-based voltage-sensor dyes. Solutions […]

T1 sequence (P13569 with tags, fused parts or gaps DEL508-508): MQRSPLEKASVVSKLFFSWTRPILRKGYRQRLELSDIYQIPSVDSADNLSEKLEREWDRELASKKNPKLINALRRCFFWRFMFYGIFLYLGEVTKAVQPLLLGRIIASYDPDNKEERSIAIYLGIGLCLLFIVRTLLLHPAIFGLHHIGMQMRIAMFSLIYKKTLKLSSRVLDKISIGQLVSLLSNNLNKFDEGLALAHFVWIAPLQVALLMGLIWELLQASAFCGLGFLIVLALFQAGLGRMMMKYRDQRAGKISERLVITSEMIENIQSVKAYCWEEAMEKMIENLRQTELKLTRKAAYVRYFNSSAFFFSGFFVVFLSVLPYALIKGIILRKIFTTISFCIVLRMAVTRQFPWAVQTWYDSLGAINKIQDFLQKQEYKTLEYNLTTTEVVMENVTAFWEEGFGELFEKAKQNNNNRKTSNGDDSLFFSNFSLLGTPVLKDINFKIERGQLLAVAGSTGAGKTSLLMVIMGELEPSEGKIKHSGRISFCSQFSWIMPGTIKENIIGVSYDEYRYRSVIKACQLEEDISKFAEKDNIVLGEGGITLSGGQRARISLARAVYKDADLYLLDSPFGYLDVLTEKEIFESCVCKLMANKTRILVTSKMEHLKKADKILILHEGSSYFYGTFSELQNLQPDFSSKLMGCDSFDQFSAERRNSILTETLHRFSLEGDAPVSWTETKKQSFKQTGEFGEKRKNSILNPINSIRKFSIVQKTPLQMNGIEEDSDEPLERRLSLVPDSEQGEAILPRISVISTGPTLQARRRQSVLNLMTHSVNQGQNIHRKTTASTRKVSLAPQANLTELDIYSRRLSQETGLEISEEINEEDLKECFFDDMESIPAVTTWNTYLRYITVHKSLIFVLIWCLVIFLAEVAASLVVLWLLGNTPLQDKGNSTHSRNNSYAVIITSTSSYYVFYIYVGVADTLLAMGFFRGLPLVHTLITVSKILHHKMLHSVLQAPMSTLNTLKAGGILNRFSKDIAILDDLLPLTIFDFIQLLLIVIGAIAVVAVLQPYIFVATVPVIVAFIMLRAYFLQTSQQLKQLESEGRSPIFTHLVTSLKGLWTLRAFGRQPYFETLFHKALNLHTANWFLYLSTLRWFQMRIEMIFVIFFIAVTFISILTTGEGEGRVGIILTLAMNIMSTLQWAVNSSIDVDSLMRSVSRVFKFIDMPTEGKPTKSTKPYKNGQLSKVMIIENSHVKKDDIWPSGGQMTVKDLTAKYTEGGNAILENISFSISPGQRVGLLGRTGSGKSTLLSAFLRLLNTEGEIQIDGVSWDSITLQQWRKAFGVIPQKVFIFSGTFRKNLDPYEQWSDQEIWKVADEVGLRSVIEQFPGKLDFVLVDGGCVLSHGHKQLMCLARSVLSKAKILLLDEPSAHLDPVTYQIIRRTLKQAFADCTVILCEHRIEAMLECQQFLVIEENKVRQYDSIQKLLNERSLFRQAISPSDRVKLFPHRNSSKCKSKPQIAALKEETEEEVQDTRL

EC50 [µM]	% Activity (relative efficacy) (relative efficacy)	SMILES
< 10		Cc1cc2nc(NC(=O)c3c[nH]c4ccccc4c3=O)[nH]c2cc1C [compound 422, N-(5,6-dimethyl-3H-benzoimidazol-2-yl)-4-oxo-1H-quinoline-3-carboxamide]
< 10	++ (“++” means between 25% to 100%)	CC(C)(C)c1cc(C(C)(C)C)c(NC(=O)c2c[nH]c3cccc(O)c3c2=O)cc1O [Compound 464, 5-hydroxy-N-(5-hydroxy-2,4-ditert-butyl-phenyl)-4-oxo-1H-quinoline-3-carboxamide]
